Data from US20230295130A1, “COMPOUND USEFUL AS CDK7 KINASE INHIBITOR AND USE THEREOF” (TYK MEDICINES, INC., priority 2020, published 2023).
pIC50: −log10 of the molar value. Like-named read-outs stand apart in the source and are kept apart here.

Assays:
Assay in all cases: Enzyme activity test, mobility shift assay (Table 1)
Format in all cases: biochemical
[1] = target: CDK7/Cyclin H/MAT1 kinase (Homo sapiens (Human), UniProt P50613); details: 2 mM ATP; pre-incubated 0 and 60 minutes
Experimental: IC50 values of the compounds for CDK7 kinase were detected in Wuxi Biortus Biosciences Co. Ltd.
(§1) The compound powder was dissolved in 100% DMSO to prepare a 10 mM storage solution. The storage solution was further diluted to 0.5 mM as the initial concentration, and continuously diluted 3 times to obtain 10 compound solutions with different concentrations. The compound and enzyme were pre-incubated for 0 minutes and 60 minutes, respectively, using duplicate detection.
(§2) was used as a positive control, and Mobility shift assay method was used to detect CDK kinase (such as CDK7, CDK9, CDK12 and CDK2) activity of the compounds.

CDK2/Cyclin El = CDK2/Cyclin El (Homo sapiens (Human), UniProt P24941); details: 2 mM ATP; read-out: CDK2 kinase IC50
Experimental: as §1, §2

CDK9/Cyclin Tl = CDK9/Cyclin Tl (Homo sapiens (Human), UniProt P50750); details: 2 mM ATP; read-out: CDK9 kinase IC50
Experimental: as §1, §2

[2] = target: CDK12 (aa686-1082)/Cyclin K (Homo sapiens (Human), UniProt Q9NYV4)
Experimental: as §1, with “detection. Compound Staurosporine having a structural formula of” for “detection.”
as §2

[3] = 2 mM ATP, read-out: CDK12 kinase IC50

Chain of CDK12 (aa686-1082)/Cyclin K (Q9NYV4 686-1082): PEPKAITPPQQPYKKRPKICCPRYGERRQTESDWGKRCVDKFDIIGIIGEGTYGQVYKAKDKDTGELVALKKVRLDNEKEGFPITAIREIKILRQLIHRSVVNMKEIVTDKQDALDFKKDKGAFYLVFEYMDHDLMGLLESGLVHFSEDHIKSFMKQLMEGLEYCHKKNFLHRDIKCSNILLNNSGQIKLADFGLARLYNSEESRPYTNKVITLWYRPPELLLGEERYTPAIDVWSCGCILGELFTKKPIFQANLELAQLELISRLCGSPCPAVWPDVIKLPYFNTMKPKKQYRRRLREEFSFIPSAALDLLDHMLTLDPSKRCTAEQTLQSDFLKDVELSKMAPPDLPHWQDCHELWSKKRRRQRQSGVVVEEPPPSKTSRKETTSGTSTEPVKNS
Chain of CDK12 (aa686-1082)/Cyclin K (O75909 whole entry partner, the tested form may be a part): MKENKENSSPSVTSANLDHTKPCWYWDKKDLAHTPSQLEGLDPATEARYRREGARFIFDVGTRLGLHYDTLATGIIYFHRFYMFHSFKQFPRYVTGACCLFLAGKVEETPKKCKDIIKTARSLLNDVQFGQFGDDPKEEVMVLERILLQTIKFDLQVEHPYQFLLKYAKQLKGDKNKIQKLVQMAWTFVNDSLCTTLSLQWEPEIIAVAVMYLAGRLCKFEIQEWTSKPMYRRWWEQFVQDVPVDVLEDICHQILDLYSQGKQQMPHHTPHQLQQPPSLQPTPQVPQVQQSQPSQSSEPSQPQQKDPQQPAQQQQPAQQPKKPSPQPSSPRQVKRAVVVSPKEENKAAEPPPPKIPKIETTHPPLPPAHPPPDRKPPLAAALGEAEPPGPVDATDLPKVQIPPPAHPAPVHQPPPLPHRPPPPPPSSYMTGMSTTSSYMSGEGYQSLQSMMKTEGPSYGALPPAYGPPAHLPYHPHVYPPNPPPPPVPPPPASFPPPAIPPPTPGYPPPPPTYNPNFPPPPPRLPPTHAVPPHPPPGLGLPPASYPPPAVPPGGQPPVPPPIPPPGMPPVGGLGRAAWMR
Chain of CDK7/Cyclin H/MAT1 kinase (P50613 whole entry): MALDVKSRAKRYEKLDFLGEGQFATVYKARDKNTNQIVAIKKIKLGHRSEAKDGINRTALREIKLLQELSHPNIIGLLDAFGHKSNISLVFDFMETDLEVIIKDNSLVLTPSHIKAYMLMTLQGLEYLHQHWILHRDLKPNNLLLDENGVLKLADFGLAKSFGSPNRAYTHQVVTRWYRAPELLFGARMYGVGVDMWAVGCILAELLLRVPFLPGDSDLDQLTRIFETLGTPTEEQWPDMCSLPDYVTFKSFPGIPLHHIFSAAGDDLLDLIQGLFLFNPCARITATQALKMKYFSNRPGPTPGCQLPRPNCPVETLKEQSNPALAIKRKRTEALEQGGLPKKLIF
Chain of CDK7/Cyclin H/MAT1 kinase (P51946 whole entry partner): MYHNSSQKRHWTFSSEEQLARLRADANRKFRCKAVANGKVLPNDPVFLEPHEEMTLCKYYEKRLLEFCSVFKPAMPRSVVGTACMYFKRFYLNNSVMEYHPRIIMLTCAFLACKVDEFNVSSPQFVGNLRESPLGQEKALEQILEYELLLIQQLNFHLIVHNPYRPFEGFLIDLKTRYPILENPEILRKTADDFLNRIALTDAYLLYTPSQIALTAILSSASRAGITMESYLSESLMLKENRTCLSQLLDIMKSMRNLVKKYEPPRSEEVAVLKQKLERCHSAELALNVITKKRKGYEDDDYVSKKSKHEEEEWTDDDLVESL
Chain of CDK7/Cyclin H/MAT1 kinase (P51948 whole entry partner): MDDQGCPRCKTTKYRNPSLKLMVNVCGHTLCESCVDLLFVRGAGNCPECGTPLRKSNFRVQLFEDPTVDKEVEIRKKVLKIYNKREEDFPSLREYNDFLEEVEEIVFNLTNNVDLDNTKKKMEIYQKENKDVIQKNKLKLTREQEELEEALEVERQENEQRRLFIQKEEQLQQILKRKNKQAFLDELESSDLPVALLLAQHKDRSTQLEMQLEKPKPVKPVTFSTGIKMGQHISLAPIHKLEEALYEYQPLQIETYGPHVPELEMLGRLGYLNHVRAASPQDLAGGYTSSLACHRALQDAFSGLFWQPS
Chain of CDK9/Cyclin Tl (P50750 whole entry): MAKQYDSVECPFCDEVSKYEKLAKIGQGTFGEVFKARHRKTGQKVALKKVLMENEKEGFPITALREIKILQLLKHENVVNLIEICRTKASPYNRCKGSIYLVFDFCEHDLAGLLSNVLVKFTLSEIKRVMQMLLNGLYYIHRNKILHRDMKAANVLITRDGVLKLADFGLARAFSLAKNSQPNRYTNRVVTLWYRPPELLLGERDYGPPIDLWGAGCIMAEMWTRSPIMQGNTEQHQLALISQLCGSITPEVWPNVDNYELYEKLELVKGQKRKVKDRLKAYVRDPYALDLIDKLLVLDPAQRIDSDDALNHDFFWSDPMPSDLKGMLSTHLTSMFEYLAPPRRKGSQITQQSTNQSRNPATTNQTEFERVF
Chain of CDK9/Cyclin Tl (O60563 whole entry partner): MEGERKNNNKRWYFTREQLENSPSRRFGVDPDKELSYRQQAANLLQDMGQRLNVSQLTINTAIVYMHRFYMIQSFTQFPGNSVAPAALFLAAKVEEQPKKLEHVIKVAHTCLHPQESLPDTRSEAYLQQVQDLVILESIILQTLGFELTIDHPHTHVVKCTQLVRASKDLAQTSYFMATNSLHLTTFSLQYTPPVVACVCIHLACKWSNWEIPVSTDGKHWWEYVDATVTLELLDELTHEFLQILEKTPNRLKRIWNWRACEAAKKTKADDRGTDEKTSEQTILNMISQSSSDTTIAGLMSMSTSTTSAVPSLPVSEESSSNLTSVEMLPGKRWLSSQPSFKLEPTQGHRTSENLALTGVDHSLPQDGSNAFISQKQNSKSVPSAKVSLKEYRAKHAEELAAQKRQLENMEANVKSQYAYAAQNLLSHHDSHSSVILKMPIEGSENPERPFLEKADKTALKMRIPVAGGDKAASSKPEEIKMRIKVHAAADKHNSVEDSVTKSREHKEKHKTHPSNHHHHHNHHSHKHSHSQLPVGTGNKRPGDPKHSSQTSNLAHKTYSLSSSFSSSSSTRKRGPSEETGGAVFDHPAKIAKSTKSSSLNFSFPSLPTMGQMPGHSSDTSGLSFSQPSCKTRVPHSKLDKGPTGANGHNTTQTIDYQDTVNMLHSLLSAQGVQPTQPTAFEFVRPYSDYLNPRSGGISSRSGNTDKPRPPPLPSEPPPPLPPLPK

SMILES	pIC50 [1]	pIC50 (CDK2/Cyclin El)	pIC50 (CDK9/Cyclin Tl)	pIC50 [2, 3]	pIC50 [2]
COC(=O)Nc1ccc2c(-c3nc(O[C@H]4CCCNC4)ncc3C(F)(F)F)c[nH]c2c1Br [Example T-02]	6.30 to 7.30	< 6.30	< 6.30	< 6.30	–
O=C(Nc1ccc2c(-c3nc(N[C@H]4CCCNC4)ncc3C(F)(F)F)c[nH]c2c1Br)C1CC1 [Example T-08]	> 7.30	< 6.30	< 6.30	< 6.30	–
O=C(Nc1ccc2c(-c3nc(N[C@H]4CCCNC4)ncc3C(F)(F)F)c[nH]c2c1)C1CC1 [Example T-11]	> 7.30	< 6.30	< 6.30	< 6.30	–
COC(=O)Nc1ccc2c(-c3nc(N[C@H]4CCC[C@H](N)C4)ncc3C(F)(F)F)c[nH]c2c1Br [Example T-20]	6.30 to 7.30	< 6.30	< 6.30	< 6.30	–
COC(=O)Nc1ccc2c(-c3nc(N[C@H]4CCC[C@@H](N)C4)ncc3C(F)(F)F)c[nH]c2c1Br [Example T-21]	6.30 to 7.30	< 6.30	< 6.30	< 6.30	–
COC(=O)Nc1ccc2c(-c3nc(N[C@@H]4CCC[C@H](N)C4)ncc3C(F)(F)F)c[nH]c2c1Br [Example T-22]	6.30 to 7.30	< 6.30	< 6.30	< 6.30	–
COC(=O)Nc1ccc2c(-c3nc(N[C@@H]4CCC[C@@H](N)C4)ncc3C(F)(F)F)c[nH]c2c1Br [Example T-23]	6.30 to 7.30	< 6.30	< 6.30	< 6.30	–
COC(=O)Nc1ccc2c(-c3nc(N[C@@H]4[C@@H]5CNC[C@@H]54)ncc3C(F)(F)F)c[nH]c2c1Br [Example T-25]	6.30 to 7.30	< 6.30	< 6.30	< 6.30	–
COC(=O)Nc1ccc2c(-c3nc(NC4C5CCNC54)ncc3C(F)(F)F)c[nH]c2c1Br (centres unmarked) [Example T-26]	6.30 to 7.30	< 6.30	< 6.30	< 6.30	–
COC(=O)Nc1ccc2c(-c3nc(NC4CC5CNCC5C4)ncc3C(F)(F)F)c[nH]c2c1Br (centres unmarked) [Example T-28]	6.30 to 7.30	< 6.30	< 6.30	< 6.30	–
COC(=O)Nc1ccc2c(-c3nc(N[C@H]4CCC[C@@H](O)C4)ncc3C(F)(F)F)c[nH]c2c1Br [Example T-29]	< 6.30	< 6.30	< 6.30	< 6.30	–
COC(=O)Nc1ccc2c(-c3nc(N[C@H]4CCCNC4)ncc3C(F)(F)F)c[nH]c2c1S(=O)(=O)C(C)C [Example T-63]	> 7.30	< 6.30	< 6.30	< 6.30	–
CC(=O)Nc1ccc2c(-c3nc(N[C@H]4CCCNC4)ncc3C(F)(F)F)c[nH]c2c1C(C)(C)O [Example T-158]	> 7.30	–	–	–	–
COC(=O)N(C)c1ccc2c(-c3nc(N[C@H]4CCCNC4)ncc3C(F)(F)F)c[nH]c2c1OC [Example T-166]	> 7.30	–	–	–	–
COC(=O)Nc1ccc2c(-c3nc(N[C@H]4CCCN(C)C4)ncc3C(F)(F)F)c[nH]c2c1OC [Example T-167]	> 7.30	–	–	–	–
COC(=O)N(C)c1ccc2c(-c3nc(N[C@H]4CCCNC4)ncc3C(F)(F)F)c[nH]c2c1C(C)(F)F [Example T-170]	> 7.30	–	–	–	–
COC(=O)Nc1ccc2c(-c3nc(N[C@H]4CCCN(C)C4)ncc3C(F)(F)F)c[nH]c2c1C(C)(F)F [Example T-171]	> 7.30	–	–	–	–
COC(=O)Nc1ccc2c(-c3nc(N[C@H]4CCCN(C)C4)ncc3C(F)(F)F)c[nH]c2c1C(F)(F)F [Example T-172]	> 7.30	–	–	–	–
COC(=O)Nc1ccc2c(-c3nc(N[C@H]4CCCN(C)C4)ncc3C(F)(F)F)c[nH]c2c1OC(F)F [Example T-173]	> 7.30	–	–	–	–
COC(=O)Nc1ccc2c(-c3nc(N[C@H]4CCCN(C)C4)ncc3C(F)(F)F)c[nH]c2c1C1CC1 [Example T-174]	> 7.30	–	–	–	–
COC(=O)N(C)c1ccc2c(-c3nc(N[C@H]4CCCNC4)ncc3C(F)(F)F)c[nH]c2c1C1CC1 [Example T-175]	> 7.30	–	–	–	–
CN[C@@H]1C[C@H]2O[C@@](C)([C@@H]1OC)n1c3ccccc3c3c4c(c5c6ccccc6n2c5c31)C(=O)NC4 [Staurosporine, reference compound]	–	–	–	–	< 6.30

Second part, led by results:

pIC50 [1]	pIC50 (CDK2/Cyclin El)	pIC50 (CDK9/Cyclin Tl)	pIC50 [2, 3]	SMILES	pIC50 [2]
> 7.30	< 6.30	< 6.30	< 6.30	O=C1CCCCN1c1ccc2c(-c3nc(N[C@H]4CCCNC4)ncc3C(F)(F)F)c[nH]c2c1Br [Example T-03]	–
> 7.30	< 6.30	< 6.30	< 6.30	O=C1CCCN1c1ccc2c(-c3nc(N[C@H]4CCCNC4)ncc3C(F)(F)F)c[nH]c2c1Br [Example T-04]	–
> 7.30	< 6.30	< 6.30	< 6.30	CN1CCC[C@H](Nc2ncc(C(F)(F)F)c(-c3c[nH]c4cc(N5CCCC5=O)ccc34)n2)C1 [Example T-05]	–
> 7.30	< 6.30	< 6.30	< 6.30	O=C1OCCCN1c1ccc2c(-c3nc(N[C@H]4CCCNC4)ncc3C(F)(F)F)c[nH]c2c1Br [Example T-06]	–
> 7.30	< 6.30	< 6.30	< 6.30	CC1(C)COC(Nc2ccc3c(-c4nc(N[C@H]5CCCNC5)ncc4C(F)(F)F)c[nH]c3c2Br)=N1 [Example T-07]	–
> 7.30	< 6.30	< 6.30	< 6.30	CC(=O)Nc1ccc2c(-c3nc(N[C@H]4CCCNC4)ncc3C(F)(F)F)c[nH]c2c1Br [Example T-09]	–
> 7.30	< 6.30	< 6.30	< 6.30	CC(=O)Nc1ccc2c(-c3nc(N[C@H]4CCCNC4)ncc3C(F)(F)F)c[nH]c2c1 [Example T-10]	–
> 7.30	< 6.30	< 6.30	< 6.30	O=C1OCCN1c1ccc2c(-c3nc(N[C@H]4CCCNC4)ncc3C(F)(F)F)c[nH]c2c1Br [Example T-12]	–
> 7.30	< 6.30	< 6.30	< 6.30	O=C1CCCN1c1ccc2c(-c3nc(N[C@H]4CCCNC4)ncc3C(F)(F)F)c[nH]c2c1 [Example T-13]	–
> 7.30	< 6.30	< 6.30	< 6.30	COC(=O)Nc1ccc2c(-c3nc(N[C@H]4CCCNC4)ncc3C(F)(F)F)c[nH]c2c1P(C)(C)=O [Example T-14]	–
> 7.30	< 6.30	< 6.30	< 6.30	CC(=O)Nc1ccc2c(-c3nc(N[C@H]4CCCNC4)ncc3C(F)(F)F)c[nH]c2c1P(C)(C)=O [Example T-15]	–
> 7.30	< 6.30	< 6.30	< 6.30	COC(=O)Nc1ccc2c(-c3nc(N[C@H]4CCCNC4)ncc3C(F)(F)F)c[nH]c2c1 [Example T-16]	–
> 7.30	< 6.30	< 6.30	< 6.30	O=C1CCN1c1ccc2c(-c3nc(N[C@H]4CCCNC4)ncc3C(F)(F)F)c[nH]c2c1Br [Example T-18]	–
> 7.30	< 6.30	< 6.30	< 6.30	COC(=O)Nc1ccc2c(-c3nc(NC4CC5(CNC5)C4)ncc3C(F)(F)F)c[nH]c2c1Br [Example T-19]	–
> 7.30	< 6.30	< 6.30	< 6.30	COC(=O)Nc1ccc2c(-c3nc(N[C@H]4[C@@H]5CNC[C@@H]54)ncc3C(F)(F)F)c[nH]c2c1Br [Example T-24]	–
> 7.30	< 6.30	< 6.30	< 6.30	COC(=O)Nc1ccc2c(-c3nc(N[C@H]4CCCNC4)ncc3C(F)(F)F)c[nH]c2c1C#N [Example T-27]	–
> 7.30	< 6.30	< 6.30	< 6.30	COC(=O)Nc1ccc2c(-c3nc(NC4CC5(CC(N)C5)C4)ncc3C(F)(F)F)c[nH]c2c1Br (centres unmarked) [Example T-31]	–
> 7.30	< 6.30	< 6.30	< 6.30	COC(=O)Nc1ccc2c(-c3nc(N[C@H]4CCC(C)(C)NC4)ncc3C(F)(F)F)c[nH]c2c1C(F)(F)F [Example T-35]	–
> 7.30	< 6.30	< 6.30	< 6.30	CCOC(=O)Nc1ccc2c(-c3nc(N[C@@H]4CNCC(C)(C)C4)ncc3C(F)(F)F)c[nH]c2c1Br [Example T-43]	–
> 7.30	< 6.30	< 6.30	< 6.30	CC(C)OC(=O)Nc1ccc2c(-c3nc(N[C@H]4CCCNC4)ncc3C(F)(F)F)c[nH]c2c1Br [Example T-44]	–
> 7.30	< 6.30	< 6.30	< 6.30	COC(=O)Nc1ccc2c(-c3nc(N[C@H]4CCCNC4)ncc3C(F)(F)F)c[nH]c2c1-c1ccccc1 [Example T-60]	–
> 7.30	< 6.30	< 6.30	< 6.30	COC(=O)Nc1ccc2c(-c3nc(N[C@H]4CCC(C)(C)NC4)ncc3C(F)(F)F)c[nH]c2c1S(=O)(=O)C(C)C [Example T-64]	–
